Reference: US20200131669A1, “CYCLIC PEPTIDE COMPOUND HAVING HIGH MEMBRANE PERMEABILITY, AND LIBRARY CONTAINING SAME” (Chugai Seiyaku Kabushiki Kaisha, priority 2017, published 2020)
Starred links: 1 amine or outer side, 2 acyl side, 3 side chain; linkers in the order of their positions; H or OH if unused. Positions of bridges follow the written chain, without caps; N, C: chain ends. Non-standard residues stand in square brackets, D forms with d. Residues, ends and D or L forms follow the SMILES beside them. *: point of attachment. NMeAbu(3,3-F2-piperidino) = CN[C@@H](CCN1CCCC(F)(F)C1)C(=O)O; Glu(NHSO2Me) = CS(=O)(=O)NC(=O)CC[C@H](N)C(=O)O; Phe(4-CF3) = N[C@@H](Cc1ccc(C(F)(F)F)cc1)C(=O)O; NMePhe(3-Cl) = CN[C@@H](Cc1cccc(Cl)c1)C(=O)O; X16 = O=C(C1CCCCC1)[C@H](CC(=O)[*:2])N[*:1]; Tyr(3-F) = N[C@@H](Cc1ccc(O)c(F)c1)C(=O)O; X14 = O=C([C@H](CCc1ccccc1Cl)N[*:1])[*:2]; X9 = O=C(CN(CCOc1ccccc1)[*:1])[*:2]; X3 = O=C([C@H](CCCCO)N[*:1])[*:2]; NMeF = CN[C@@H](Cc1ccccc1)C(=O)O; NMeGABA = CN(CCCC(=O)[*:2])[*:1]; NMeI = CC[C@H](C)[C@H](NC)C(=O)O; hPhe = N[C@@H](CCc1ccccc1)C(=O)O; 4Pal = N[C@@H](Cc1ccncc1)C(=O)O; NMeL = CN[C@@H](CC(C)C)C(=O)O; NMeV = CN[C@H](C(=O)O)C(C)C; NMeAbu = CC[C@H](NC)C(=O)O; NMeA = CN[C@@H](C)C(=O)O; Piperidide = C1CCN(*)CC1; Me2NCH2CH2 = CN(C)CC*; NBuGly = CCCCNCC(=O)O; Isopentyl = CC(C)CC*; NPrGly = CCCNCC(=O)O; Sar = CNCC(=O)O; tBu = CC(C)(C)*; CHF2 = FC(F)*

Assay: Caco-2 membrane permeability, improved method as used in the following Examples (96-well, 20 to 24 h preincubation)
Assay type: in vitro ADME
Conditions: Caco-2, Caco-2 (cm/sec)
How it was run: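 Caco-2 monolayers were grown three weeks and preincubated 20–24 h at 37 °C with compound in DMEM+FaSSIF (1% DMSO) apically. The assay then used compound in FaSSIF/HBSS (1% DMSO, pH 6.0) apically and HBSS with 4% BSA (pH 7.4) basally. Basal samples were taken at 180 min for LC/MS, and Papp (cm/sec) was calculated.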

Row | SMILES | Papp A→B [×10⁻⁶ cm/s]
1 | CC(C)C[C@H]1C(=O)N[C@@H](COC(C)(C)C)C(=O)N(C)[C@@H](C(C)C)C(=O)N(C)[C@@H](C)C(=O)N[C@H](C(=O)N2CCCCC2)CC(=O)N[C@H](C)C(=O)N(C)[C@@H](Cc2ccccc2)C(=O)N[C@@H](Cc2ccc(C(F)(F)F)cc2)C(=O)N(C)[C@@H](CC(C)C)C(=O)N[C@@H]([C@@H](C)O)C(=O)N(C)CC(=O)N1C [pd130] ([dA][NMeF][Phe(4-CF3)][NMeL]T[Sar][NMeL]S(tBu)[NMeV][NMeA]D-Piperidide; lactam N-11) | 1.1

Same assay, conditions: human, Caco-2, Caco-2

Row | SMILES | Papp A→B at 180 min [×10⁻⁶ cm/s]
2 | CCCCN1CC(=O)N(C)[C@@H](CC(C)C)C(=O)N[C@@H](CCC(=O)NS(C)(=O)=O)C(=O)N(C)[C@@H](Cc2cccc(Cl)c2)C(=O)N(C)[C@@H](C(C)C)C(=O)N[C@H](C(=O)N2CCCCC2)CC(=O)N[C@H](CC(C)C)C(=O)N(C)[C@@H](Cc2cccc(Cl)c2)C(=O)N[C@@H](CC(C)C)C(=O)N(C)[C@@H](CC(C)C)C(=O)N[C@@H]([C@@H](C)O)C1=O [pd60] ([dL][NMePhe(3-Cl)]L[NMeL]T[NBuGly][NMeL][Glu(NHSO2Me)][NMePhe(3-Cl)][NMeV]D-Piperidide; lactam N-11) | 0.01
3 | CCCN1CC(=O)N(C)[C@@H](CC(C)C)C(=O)N[C@@H](COCCN(C)C)C(=O)N(C)[C@@H](Cc2ccccc2)C(=O)N(C)[C@@H](C(C)C)C(=O)N[C@H](C(=O)N2CCCCC2)CC(=O)N[C@H](C(C)C)C(=O)N(C)[C@@H](Cc2ccccc2)C(=O)N[C@@H](CC(C)C)C(=O)N(C)[C@@H](CC(C)C)C(=O)N[C@@H]([C@@H](C)O)C1=O [pd52] ([dV][NMeF]L[NMeL]T[NPrGly][NMeL]S(Me2NCH2CH2)[NMeF][NMeV]D-Piperidide; lactam N-11) | 0.12
4 | CCCCN1CC(=O)N(C)[C@@H](C)C(=O)N[C@H](C(=O)N2CCCCC2)CC(=O)N(C)[C@@H](C)C(=O)N[C@@H](Cc2ccc(OC(F)F)cc2)C(=O)N(C)[C@@H](CC(C)C)C(=O)N(C)[C@@H](Cc2ccccc2)C(=O)N[C@@H](CC(C)C)C(=O)N(C)[C@@H](CC(C)C)C(=O)N(C)[C@@H]([C@@H](C)CC)C(=O)N[C@@H]([C@@H](C)O)C1=O [pd479] ([NMeA]Y(CHF2)[NMeL][NMeF]L[NMeL][NMeI]T[NBuGly][NMeA]D-Piperidide; lactam N-11) | 1
5 | CCCCN1CC(=O)N(C)[C@@H](Cc2ccccc2)C(=O)N[C@@H](COCCN(C)C)C(=O)N(C)[C@@H](CC(C)C)C(=O)N[C@@H]([C@@H](C)O)C(=O)N(C)CC(=O)N(C)[C@@H](Cc2ccccc2)C(=O)N(C)[C@@H](CC)C(=O)N[C@@H](COCCC(C)C)C(=O)N(C)[C@@H](CC(C)C)C(=O)N[C@H](C(=O)N2CCCCC2)CC1=O [pd58] ([NBuGly][NMeF]S(Me2NCH2CH2)[NMeL]T[Sar][NMeF][NMeAbu]S(Isopentyl)[NMeL]D-Piperidide; lactam N-11) | 0.021
6 | CC(C)C[C@H]1C(=O)N(C)[C@@H](Cc2ccccc2)C(=O)N[C@H](C(=O)N2CCCCC2)CC(=O)N(C)[C@@H](C(C)C)C(=O)N[C@@H](C)C(=O)N(C)[C@@H](Cc2ccccc2)C(=O)N(C)[C@@H](CC(C)C)C(=O)N(C)CC(=O)N[C@@H]([C@@H](C)O)C(=O)N(C)[C@@H](C(C)C)C(=O)N[C@@H](CCc2ccccc2)C(=O)N1C [pd311] ([NMeV]A[NMeF][NMeL][Sar]T[NMeV][hPhe][NMeL][NMeF]D-Piperidide; lactam N-11) | 2.6
7 | CC[C@H](C)[C@@H]1NC(=O)[C@H](CC(C)C)N(C)C(=O)[C@@H](C)NC(=O)C[C@@H](C(=O)N2CCCCC2)NC(=O)[C@H](CC)N(C)C(=O)[C@H](Cc2ccccc2)N(C)C(=O)[C@H](COC(C)(C)C)NC(=O)[C@H](CC(C)C)N(C)C(=O)[C@H](CC)N(C)C(=O)[C@H]([C@@H](C)O)NC(=O)CN(CCOc2ccccc2)C1=O [pd423] ([dA][NMeL]I[X9]T[NMeAbu][NMeL]S(tBu)[NMeF][NMeAbu]D-Piperidide; lactam N-11) | 1
8 | CC(C)C[C@@H]1NC(=O)[C@H](Cc2ccccc2)N(C)C(=O)[C@@H](CC(C)C)NC(=O)C[C@@H](C(=O)N2CCCCC2)NC(=O)[C@H](C(C)C)N(C)C(=O)[C@H](Cc2ccccc2)N(C)C(=O)[C@H](COC(C)(C)C)NC(=O)[C@H](CC(C)C)N(C)C(=O)CN(C)C(=O)[C@H](CCCCO)NC(=O)[C@H](CC(C)C)N(C)C1=O [pd449] ([dL][NMeF]L[NMeL][X3][Sar][NMeL]S(tBu)[NMeF][NMeV]D-Piperidide; lactam N-11) | 2
9 | CC[C@H](C)[C@@H]1NC(=O)[C@H](Cc2ccccc2)N(C)C(=O)CN(C)C(=O)C[C@@H](C(=O)N2CCCCC2)NC(=O)[C@H](C(C)C)N(C)C(=O)[C@H](CCc2ccccc2Cl)NC(=O)[C@H](CC(C)C)N(C)C(=O)[C@H](CC(C)C)N(C)C(=O)CN(C)C(=O)[C@H]([C@@H](C)O)NC(=O)[C@H](CC(C)C)N(C)C1=O [pd354] ([Sar][NMeF]I[NMeL]T[Sar][NMeL][NMeL][X14][NMeV]D-Piperidide; lactam N-11) | 1.5
10 | CCCCN1CC(=O)N(C)[C@@H](CC(C)C)C(=O)N[C@@H](COC(C)(C)C)C(=O)N(C)[C@@H](Cc2ccccc2)C(=O)N(C)[C@@H](C(C)C)C(=O)N[C@H](C(=O)N2CCCCC2)CC(=O)N[C@H](C)C(=O)N(C)[C@@H](Cc2ccccc2)C(=O)N[C@@H](CC(C)C)C(=O)N(C)[C@@H](CCN2CCCC(F)(F)C2)C(=O)N[C@@H]([C@@H](C)O)C1=O [pd386] ([dA][NMeF]L[NMeAbu(3,3-F2-piperidino)]T[NBuGly][NMeL]S(tBu)[NMeF][NMeV]D-Piperidide; lactam N-11) | 2.3

Same assay, conditions: human, Caco-2, Caco-2 (cm/sec)

Row | SMILES | Papp A→B at 180 min [×10⁻⁶ cm/s]
11 | CC[C@H](C)[C@@H]1NC(=O)[C@H](CC(C)C)N(C)C(=O)CCCN(C)C(=O)C[C@@H](C(=O)C2CCCCC2)NC(=O)[C@H](CC(C)C)N(C)C(=O)[C@H](C)N(C)C(=O)[C@H](Cc2ccncc2)NC(=O)[C@H](CC(C)C)N(C)C(=O)[C@H](COC(C)(C)C)NC(=O)[C@H](Cc2cccc(Cl)c2)N(C)C(=O)[C@H](CC(C)C)N(C)C1=O [pd170] (cyclo([4Pal][NMeA][NMeL][X16][NMeGABA][NMeL]I[NMeL][NMePhe(3-Cl)]S(tBu)[NMeL])) | 1.6
12 | CC(C)C[C@@H]1NC(=O)[C@H](Cc2ccccc2)N(C)C(=O)[C@H](CC(C)C)N(C)C(=O)[C@H](Cc2ccccc2)NC(=O)[C@@H](C)NC(=O)C[C@@H](C(=O)N2CCCCC2)NC(=O)[C@H](Cc2ccccc2)N(C)C(=O)CN(C)C(=O)[C@H](Cc2ccccc2)NC(=O)[C@H](CC(C)C)N(C)C(=O)[C@H]([C@@H](C)O)NC1=O [pd244] ([dA]F[NMeL][NMeF]LT[NMeL]F[Sar][NMeF]D-Piperidide; lactam N-11) | 0.045
13 | CC(C)C[C@@H]1NC(=O)[C@H](Cc2ccccc2)N(C)C(=O)C[C@@H](C(=O)N2CCCCC2)NC(=O)[C@H](CC(C)C)N(C)C(=O)CN(C)C(=O)[C@H]([C@@H](C)O)NC(=O)[C@H](Cc2ccccc2)N(C)C(=O)[C@H](Cc2ccccc2)N(C)C(=O)[C@H](CC(C)C)NC(=O)[C@H](Cc2ccccc2)N(C)C(=O)[C@H](CC(C)C)N(C)C1=O [pd227] ([NMeF]L[NMeL][NMeF]L[NMeF][NMeF]T[Sar][NMeL]D-Piperidide; lactam N-11) | 0.61
14 | CC(C)C[C@@H]1NC(=O)[C@H](Cc2ccccc2)N(C)C(=O)[C@H](C(C)C)N(C)C(=O)C[C@@H](C(=O)N2CCCCC2)NC(=O)[C@H]([C@@H](C)O)NC(=O)[C@H](Cc2ccccc2)N(C)C(=O)[C@H](Cc2ccccc2)NC(=O)[C@H](Cc2ccccc2)N(C)C(=O)CN(C)C(=O)[C@H](C)N(C)C(=O)[C@H](CC(C)C)N(C)C1=O [pd229] ([NMeV][NMeF]L[NMeL][NMeA][Sar][NMeF]F[NMeF]TD-Piperidide; lactam N-11) | 0.41
15 | CC(C)C[C@H]1C(=O)NCC(=O)N[C@H](C(=O)N(C)[C@@H](Cc2ccccc2)C(=O)N(C)[C@@H](Cc2ccccc2)C(=O)N[C@@H](C)C(=O)N2CCCCC2)CC(=O)N[C@@H](C)C(=O)N[C@@H]([C@@H](C)O)C(=O)N(C)[C@@H](C)C(=O)N(C)[C@@H](Cc2ccccc2)C(=O)N[C@@H](C(C)C)C(=O)N(C)[C@@H](Cc2ccccc2)C(=O)N1C [pd247] (AT[NMeA][NMeF]V[NMeF][NMeL]GD[NMeF][NMeF]A-Piperidide; lactam N-9) | 0.087
16 | CC[C@H](C)[C@@H]1NC(=O)[C@H](CC(C)C)NC(=O)[C@H](CC(C)C)N(C)C(=O)[C@H](C)NC(=O)C[C@@H](C(=O)N2CCCCC2)NC(=O)[C@H](CC(C)C)N(C)C(=O)[C@H]([C@@H](C)O)NC(=O)[C@H](Cc2ccc(C(F)(F)F)cc2)NC(=O)[C@H](CC(C)C)N(C)C1=O [pd144] (A[NMeL]LI[NMeL][Phe(4-CF3)]T[NMeL]D-Piperidide; lactam N-9) | 2.1
17 | CC(C)C[C@@H]1NC(=O)[C@H](CC(C)C)N(C)C(=O)[C@H](C)N(C)C(=O)[C@@H](C(C)C)NC(=O)C[C@@H](C(=O)N2CCCCC2)NC(=O)[C@H]([C@@H](C)O)NC(=O)[C@H](C)N(C)C(=O)[C@H](C)N(C)C(=O)[C@H](CC(C)C)N(C)C(=O)[C@H](Cc2ccc(O)c(F)c2)NC(=O)[C@H](Cc2ccccc2)N(C)C1=O [pd113] ([dV][NMeA][NMeL]L[NMeF][Tyr(3-F)][NMeL][NMeA][NMeA]TD-Piperidide; lactam N-11) | 0.029

Same assay, conditions: human; Papp, Caco-2 membrane permeability, improved method; read-out: Caco-2

Row | SMILES | Papp A→B at 180 min [×10⁻⁶ cm/s]
18 | CC(C)C[C@H]1C(=O)N[C@@H]([C@@H](C)O)C(=O)N(C)CC(=O)N(C)[C@@H](Cc2ccccc2)C(=O)N(C)[C@@H](CC(C)C)C(=O)N[C@@H](C(C)C)C(=O)N(C)[C@@H](CC(C)C)C(=O)N[C@H](C(=O)N2CCCCC2)CC(=O)N(C)CC(=O)N(C)[C@@H](C(C)C)C(=O)N[C@@H](CCc2ccccc2)C(=O)N1C [pd319] ([Sar][NMeV][hPhe][NMeL]T[Sar][NMeF][NMeL]V[NMeL]D-Piperidide; lactam N-11) | 2.2
